Assay results as given in patent US20210163489A1, “PYRAZOLOPYRIMIDINE DERIVATIVES AND THE COMPOSITIONS AND METHODS OF TREATMENT REGARDING THE SAME” (NysnoBio Ireland DAC, priority 2016, published 2021).

What follows are compounds tested against T1, Parkin (Homo sapiens, UniProt O60260) (assay: Parkin pUB auto-ubiquitinylation assay (TR-FRET)). Conditions: activation of pUb activated Parkin; read-out: Auto-ubiq EC50 (μM) [Example 3].
T1 construct: Enzyme 3: Parkin-His tagged 203 μM (10.5 mg/ml)
Type: biochemical
Source text: A Parkin pUB Auto-ubiquitinylation Assay is used to evaluate a compound's potency to activate Parkin's ability to Auto-ubiquitinylate itself.
The principle of this assay is that the E3 Ligase Parkin catalyzes the transfer of Ubiquitin to target proteins, but also has the ability to auto-ubiquitinylate itself. The phospho-Ubiquition (pUb) added to the assay alters the Parkin to a state where small molecule activators can enable the Parkin to auto-ubiquitinylate though the E1-E2 cascade reaction. The use of a Eu cryptate Ubiquition and anti 6His-d2 that binds to the His tagged Parkin will give a signal when the Eu cryptate Ubiquition is auto-ubiquitinylate onto the Parkin which can be monitored by TR-FRET.
Similar to the Activity-based probe assay in Example 2, screening for activating compounds can be distinguished from the controls as follows:
100% activation signal=pUb activated Parkin+40 nM control activator in DMSO. 0% activation signal=pUb activated Parkin+DMSO only. Parkin activators can be identified by an increase of the 0% activation signal TR-FRET signal.
• Assay Plate: White 384 well plate (Corning 3572) • Enzyme 1: E1 (Ubiquitin-activating enzyme/UBE1 Boston Biochem E-305) • Enzyme 2: E2 (UBcH7/Ube2L3 Boston Biochem E2-640) • Enzyme 3: Parkin-His tagged 203 μM (10.5 mg/ml) • pUb: Phospho-Ubiquitin (S65) (Boston Biochem U-102) • Eu Cryptate Reagent: Ubiquitin Eu (CisBio 61UBIKLA) • DMSO: DMSO (Sigma-34869-2.5L) • Reaction Buffer: 50 mM HEPES, 50 mM NaCl, 1 mM MgCl2, 0.005% Tween 20, 0.1% • PF-127 (Fisher Scientific 50-310-494), pH 8.5 • Detection Buffer: 50 mM HEPES, 50 mM NaCl, 800 mM KF, 5 mM EDTA, 0.005% • Tween 20, 0.1% PF-127, pH 8.5 • Detection Reagent Z: 13.4 nM Anti-6His-d2 in detection buffer • d2 Reagent: Anti-6His-d2 (CisBio 61HISDLA)
Enzyme Reaction (15 min Pre-Incubation with Parkin, pUb and Activator Only) • Parkin: 196 nM • pUb: 196 nM • DMSO: 1% DMSO • E1: 5 nM • E2: 50 nM • Ubiquitin Eu: 8.8 nM • Reaction time: 120 minutes • Temperature: 22° C. • Total volume: 10 μl reaction
Take 10 μl of Enzyme Reaction above and add 10 μl detection Reagent Z under the following conditions:
Reaction time: 60 minutes
1) Load assay plate wells with 4.9 μl 400.0 nM Parkin, 400 nM pUb in reaction buffer by use of Eppendorf 12-channel pipette. 2) Deliver 0.1 μl 100× activator candidates in DMSO by use of Echo 555 compound dispenser. Highest 100× concentration=100 μm and then twofold dilutions. Add each compound and control in duplicate wells. 3) Spin 1000 rpm, 2 minutes, at room temp. 4) Incubate plate for 15 minutes at room temp. 5) Add 5 μl 10 nM E1, 100 nM E2, 17.6 nM Ubiquitin Eu and 2 mM ATP in Reaction Buffer by use of Eppendorf 12-channel pipette. 6) Spin 1000 rpm, 2 minutes, at room temp. 7) Incubate plate for 120 minutes at room temp. 8) Add 10 μl 13.4 nM anti his d2 in detection buffer by use of Eppendorf 12-channel pipette. 9) Spin 1000 rpm, 2 minutes, at room temp. 10) Incubate plate for 120 minutes at room temp. 11) Read plates on Perkin Elmer Envision instrument with the following parameters:
LANCE dual laser protocol loaded into the Envision® software
Top Mirror: LANCE/DELFIA Duel/Bias (Bar code 446) Emission Filter: APC 665 EM (Bar code 205) 2nd Emission Filter: Europium 615 EM (Bar code 203) Read […] (channel 1) and 615 nm (channel 2) wavelengths on Envision®
Data Analysis: The Data can be read in CSV files. There are two tables in those CSV files, which are the values of 655 nm (channel 1) and 615 nm (channel 2) wavelengths respectively. The data is converted to an HTRF Ratio=(Channel 1/Channel 2)*10,000
The average of all the 0 uM controls (DMSO only)=BKGD (Background—0% activation). Subtract BKGD from each HTRF Ratio value=HTRF-BKGD. The average of all the 100 uM control activator in DMSO controls=Max (100% activation). The following equation is then used to calculate % Activation for each well/candidate as follows: % Activation=(HTRF−BKGD/Max)*100.
XLFIT5 model 205 was applied for the data analysis. […]

T1 sequence (O60260 whole entry, other chains not shown): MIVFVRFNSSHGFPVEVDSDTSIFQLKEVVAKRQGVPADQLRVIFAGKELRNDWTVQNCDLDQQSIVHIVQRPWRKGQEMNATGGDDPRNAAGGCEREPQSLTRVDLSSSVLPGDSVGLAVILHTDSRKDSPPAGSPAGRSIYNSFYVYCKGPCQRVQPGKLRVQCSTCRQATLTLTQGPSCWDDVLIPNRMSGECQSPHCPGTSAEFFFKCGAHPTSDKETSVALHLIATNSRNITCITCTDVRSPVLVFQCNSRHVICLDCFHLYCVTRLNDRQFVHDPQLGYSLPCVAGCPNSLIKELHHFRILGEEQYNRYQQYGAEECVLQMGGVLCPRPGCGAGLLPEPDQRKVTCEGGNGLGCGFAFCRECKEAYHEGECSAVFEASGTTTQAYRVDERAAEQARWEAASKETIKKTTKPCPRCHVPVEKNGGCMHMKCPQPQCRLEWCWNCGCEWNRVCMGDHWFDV

EC50 [µM] | Compound
> 40 | Cc1nc2c(-c3ccccn3)c(C)nn2c(O)c1Cc1ccccc1 [FF]
> 40 | Cc1cc(O)n2ncc(-c3cccc(N(C)C)c3)c2n1 [Compound M3]
> 40 | Cc1cc(S)n2nc(C)c(-c3ccccc3)c2n1 [O]
> 40 | Cc1nc2c(-c3ccccn3)c(C)nn2c(S)c1Cc1ccccc1 [HH]
> 40 | Cc1nn2c(S)c(CC(C)C)cnc2c1-c1ccccc1 [Compound G3]
> 40 | Cc1nc2c(C(=O)N(C)C)c(C)nn2c(S)c1Cc1ccccc1 [II]
> 40 | Cc1cc(S)n2ncc(-c3cccc(N(C)C)c3)c2n1 [UU]
> 40 | Sc1c(Cc2ccccc2)cnc2c(-c3ccccc3)cnn12 [Compound Z, 6-benzyl-3-phenyl-pyrazolo[1,5-a]pyrimidin-7-thiol]
> 40 | Cc1nn2c(O)c(Cc3ccccc3)cnc2c1-c1ccccc1 [Compound V, 6-benzyl-2-methyl-3-phenyl-pyrazolo[1,5-a]pyrimidin-7-ol]
